pEC50: −log10 of the molar value.
Biological target: Human immunodeficiency virus type 1 integrase (Human immunodeficiency virus 1, UniProt Q7ZJM1)
Assay: Inhibition of N-terminal His/flag-tagged HIV1 integrase expressed in Escherichia coli BL21 (DE3) incubated for 2.5 hrs by HTRF assay
Conditions: for pEC50: read-out: EC50; call rule not given here

Sequence of Human immunodeficiency virus type 1 integrase (Q7ZJM1 whole entry): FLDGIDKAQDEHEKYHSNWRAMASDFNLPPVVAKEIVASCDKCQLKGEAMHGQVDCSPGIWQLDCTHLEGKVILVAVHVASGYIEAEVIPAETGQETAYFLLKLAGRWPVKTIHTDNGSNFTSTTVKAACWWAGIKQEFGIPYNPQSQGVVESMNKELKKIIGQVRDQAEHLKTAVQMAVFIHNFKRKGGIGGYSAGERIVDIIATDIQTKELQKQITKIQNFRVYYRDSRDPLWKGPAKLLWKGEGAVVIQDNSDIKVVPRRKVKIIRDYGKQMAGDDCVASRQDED

SMILES	pEC50	EC50
Cc1nc2ccccc2c(-c2ccccc2)c1C(OC(C)(C)C)C(=O)O (configuration not stated)	5.88	–
Cc1nc2ccccc2c(-c2ccc(C#N)cc2)c1C(OC(C)(C)C)C(=O)O (configuration not stated)	5.53	–
Cc1ccc(-c2c(C(OC(C)(C)C)C(=O)O)c(C)nc3ccccc23)cc1 (configuration not stated)	6.62	–
Cc1nc2ccccc2c(-c2cncnc2)c1C(OC(C)(C)C)C(=O)O (configuration not stated)	–	Not Active
Cc1nc2ccc(Br)cc2c(-c2ccc(Cl)cc2)c1C(OC(C)(C)C)C(=O)O (configuration not stated)	7.15	–
CC(=O)Nc1ccc(-c2c(C(OC(C)(C)C)C(=O)O)c(C)nc3ccccc23)cc1 (configuration not stated)	5.08	–
Cc1nc2ccccc2c(-c2cccc(Cl)c2)c1C(OC(C)(C)C)C(=O)O (configuration not stated)	5.42	–
Cc1ccccc1-c1c(C(OC(C)(C)C)C(=O)O)c(C)nc2ccccc12 (configuration not stated)	6.29	–
Cc1nc2ccccc2c(-c2ccoc2)c1C(OC(C)(C)C)C(=O)O (configuration not stated)	5.66	–
COc1ccccc1-c1c(C(OC(C)(C)C)C(=O)O)c(C)nc2ccccc12 (configuration not stated)	5.08	–
CSc1ccc(-c2c(C(OC(C)(C)C)C(=O)O)c(C)nc3ccccc23)cc1 (configuration not stated)	6.31	–
Cc1nc2ccccc2c(-c2ccc(F)cc2)c1C(OC(C)(C)C)C(=O)O (configuration not stated)	6.31	–
Cc1nc2ccccc2c(-c2cccs2)c1C(OC(C)(C)C)C(=O)O (configuration not stated)	–	Not Active
Cc1nc2ccccc2c(-c2ccc(Cl)cc2)c1C(OC(C)(C)C)C(=O)O (configuration not stated)	7.00	–
Cc1nc2ccccc2c(-c2ccccc2C#N)c1C(OC(C)(C)C)C(=O)O (configuration not stated)	4.95	–
Cc1cccc(-c2c(C(OC(C)(C)C)C(=O)O)c(C)nc3ccccc23)c1 (configuration not stated)	6.02	–
Cc1nc2ccccc2c(-c2ccc3c(c2)CCCO3)c1C(OC(C)(C)C)C(=O)O (configuration not stated)	7.57	–
CSc1cccc(-c2c(C(OC(C)(C)C)C(=O)O)c(C)nc3ccccc23)c1 (configuration not stated)	6.00	–
Cc1nc2ccccc2c(-c2ccc(OC(F)(F)F)cc2)c1C(OC(C)(C)C)C(=O)O (configuration not stated)	6.46	–
Cc1nc2ccccc2c(-c2ccccc2F)c1C(OC(C)(C)C)C(=O)O (configuration not stated)	6.24	–

Second part, the molecule after the results:

pEC50	EC50	SMILES
5.35	–	CSc1ccccc1-c1c(C(OC(C)(C)C)C(=O)O)c(C)nc2ccccc12 (configuration not stated)
6.14	–	Cc1nc2ccccc2c(-c2ccc(C(F)(F)F)cc2)c1C(OC(C)(C)C)C(=O)O (configuration not stated)
–	Not Active	Cc1nc2ccccc2c(-c2ccc(-c3ccccc3)cc2)c1C(OC(C)(C)C)C(=O)O (configuration not stated)
5.43	–	COc1ccc(-c2c(C(OC(C)(C)C)C(=O)O)c(C)nc3ccccc23)cc1OC (configuration not stated)
–	Not Active	Cc1nc2ccccc2c(-c2cccc(C#N)c2)c1C(OC(C)(C)C)C(=O)O (configuration not stated)
5.86	–	COc1cccc(-c2c(C(OC(C)(C)C)C(=O)O)c(C)nc3ccccc23)c1 (configuration not stated)
5.86	–	CC(=O)c1ccc(-c2c(C(OC(C)(C)C)C(=O)O)c(C)nc3ccccc23)cc1 (configuration not stated)
6.59	–	Cc1nc2ccccc2c(-c2ccccc2Cl)c1C(OC(C)(C)C)C(=O)O (configuration not stated)
–	Not Active	Cc1nc2ccccc2c(-c2ccc3c(c2)c2ccccc2n3-c2ccccc2)c1C(OC(C)(C)C)C(=O)O (configuration not stated)
6.64	–	COc1ccc(-c2c(C(OC(C)(C)C)C(=O)O)c(C)nc3ccccc23)cc1 (configuration not stated)
7.10	–	Cc1nc2ccccc2c(-c2ccc3c(c2)OCCO3)c1C(OC(C)(C)C)C(=O)O (configuration not stated)
5.68	–	Cc1nc2ccccc2c(-c2cccc(F)c2)c1C(OC(C)(C)C)C(=O)O (configuration not stated)
